# In patent US12180187B2, “1-phenyl-5-azinylpyrazolyl-3-oxyalkyl acids and their use for controlling unwanted plant growth” (BAYER AKTIENGESELLSCHAFT, priority 2019, dated 2024):
# Where “and” joins values, the source holds several entries; their conditions need not be identical. Equal entries are not always repeated.
# What was measured:
# ALOMY [1] = assay: Pre-emergence action against ALOMY, 1280 g/ha; format: in vivo, Alopecurus myosuroides; conditions: visual scoring after about 3 weeks vs untreated controls, 100% = plants have died, 0% = like control plants
# Outline: (§1)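 Soil-surface application after sowing, before emergence: WP or EC formulations in water with 0.5% additive, 600 litres per hectare, onto sandy loam pots. Damage rated visually in % relative to untreated plants after roughly 3 weeks in a greenhouse.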
# DIGSA [2] = assay: Pre-emergence action against DIGSA, 1280 g/ha; format: in vivo, Digitaria sanguinalis; conditions: visual scoring after about 3 weeks vs untreated controls, 100% = plants have died, 0% = like control plants
# Outline: as §1
# ECHCG [3] = assay: Pre-emergence action against ECHCG, 1280 g/ha; format: in vivo, Echinochloa crus-galli; conditions: visual scoring after about 3 weeks vs untreated controls, 100% = plants have died, 0% = like control plants
# Outline: as §1
# LOLRI [4] = assay: Pre-emergence action against LOLRI, 1280 g/ha; format: in vivo, Lolium rigidum; conditions: visual scoring after about 3 weeks vs untreated controls, 100% = plants have died, 0% = like control plants
# Outline: as §1
# POAAN [5] = assay: Pre-emergence action against POAAN, 1280 g/ha; format: in vivo, Poa annua; conditions: visual scoring after about 3 weeks vs untreated controls, 100% = plants have died, 0% = like control plants
# Outline: as §1
# SETVI [6] = assay: Pre-emergence action against SETVI, 1280 g/ha; format: in vivo, Setaria viridis; conditions: visual scoring after about 3 weeks vs untreated controls, 100% = plants have died, 0% = like control plants
# Outline: as §1
# ABUTH [7] = assay: Pre-emergence action against ABUTH, 1280 g/ha; format: in vivo, Abutilon theophrasti; conditions: scored visually after about 3 weeks vs untreated controls (100% = plants have died)
# Outline: as §1
# AMARE [8] = assay: Pre-emergence action against AMARE, 1280 g/ha; format: in vivo, Amaranthus retroflexus; conditions: scored visually after about 3 weeks vs untreated controls (100% = plants have died)
# Outline: as §1
# KCHSC [9] = assay: Pre-emergence action against KCHSC, 1280 g/ha; format: in vivo, Bassia scoparia; conditions: scored visually after about 3 weeks vs untreated controls (100% = plants have died)
# Outline: as §1
# MATIN [10] = assay: Pre-emergence action against MATIN, 1280 g/ha; format: in vivo, Tripleurospermum inodorum (Matricaria inodora); conditions: scored visually after about 3 weeks vs untreated controls (100% = plants have died)
# Outline: as §1
# STEME [11] = assay: Pre-emergence action against STEME, 1280 g/ha; format: in vivo, Stellaria media; conditions: scored visually after about 3 weeks vs untreated controls (100% = plants have died)
# Outline: as §1
# VERPE [12] = assay: Pre-emergence action against VERPE, 1280 g/ha; format: in vivo, Veronica persica; conditions: scored visually after about 3 weeks vs untreated controls (100% = plants have died)
# Outline: as §1
# ALOMY [13] = assay: Pre-emergence action at 320 g/ha against ALOMY; format: in vivo, Alopecurus myosuroides; conditions: scored visually after about 3 weeks vs untreated controls (100% = plants have died)
# Outline: (§2)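 Visual scoring in percent against untreated controls, about 3 weeks after treatment, where 100% means dead plants and 0% means no difference. Compounds were applied as aqueous suspension or emulsion (WP or EC, plus 0.5% additive) onto soil covering freshly sown seeds, at 600 l/ha water.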
# AVEFA = assay: Pre-emergence action at 320 g/ha against AVEFA; format: in vivo; conditions: visual scoring after about 3 weeks vs untreated controls
# Outline: as §2
# DIGSA [14] = assay: Pre-emergence action at 320 g/ha against DIGSA; format: in vivo, Digitaria sanguinalis; conditions: visual scoring after about 3 weeks vs untreated controls
# Outline: as §2
# ECHGC = assay: Pre-emergence action at 320 g/ha against ECHGC; format: in vivo, Echinochloa crus-galli; conditions: visual scoring after about 3 weeks vs untreated controls
# Outline: as §2
# LOLRI [15] = assay: Pre-emergence action at 320 g/ha against LOLRI; format: in vivo, Lolium rigidum; conditions: visual scoring after about 3 weeks vs untreated controls
# Outline: as §2
# SETVI [16] = assay: Pre-emergence action at 320 g/ha against SETVI; format: in vivo, Setaria viridis; conditions: visual scoring after about 3 weeks vs untreated controls
# Outline: as §2
# AMARE [17] = assay: Pre-emergence action at 320 g/ha against AMARE; format: in vivo, Amaranthus retroflexus; conditions: visual scoring after about 3 weeks vs untreated controls
# Outline: as §2
# MATIN [18] = assay: Pre-emergence action at 320 g/ha against MATIN; format: in vivo, Tripleurospermum inodorum (Matricaria inodora); conditions: visual scoring after about 3 weeks vs untreated controls
# Outline: as §2
# PHBPU = assay: Pre-emergence action at 320 g/ha against PHBPU; format: in vivo; conditions: visual scoring after about 3 weeks vs untreated controls
# Source text: b) Seeds of monocotyledonous and dicotyledonous weed plants and crop plants are placed in plastic or organic planting pots and covered with soil. The compounds of the invention, formulated in the form of wettable powders (WP) or as emulsion concentrates (EC), are then applied onto the surface of the covering soil as aqueous suspension or emulsion with addition of 0.5% additive at a water application rate of 600 l/ha (converted). After the treatment, the pots are placed in a greenhouse and kept under good growth conditions for the trial plants. After about 3 weeks, the effect of the preparations is scored visually in comparison with untreated controls as percentages. For example, 100% activity=the plants have died, 0% activity=like control plants. Tables 13 to 26 below show the effects of selected compounds of the general formula (I) on various harmful plants and at an application rate corresponding to 320 g/ha, which were obtained by the experimental procedure mentioned above.
# POLCO = assay: Pre-emergence action at 320 g/ha against POLCO; format: in vivo, Fallopia convolvulus (Polygonum convolvulus); conditions: visual scoring after about 3 weeks vs untreated controls
# Outline: as §2
# VERPE [19] = assay: Pre-emergence action at 320 g/ha against VERPE; format: in vivo, Veronica persica; conditions: visual scoring after about 3 weeks vs untreated controls
# Outline: as §2
# VIOTR = assay: Pre-emergence action at 320 g/ha against VIOTR; format: in vivo, Viola tricolor; conditions: dosage 320 g/ha
# Outline: as §2
# ALOMY [20] = assay: Post-emergence action against ALOMY, 1.28 kg/ha; format: in vivo, Alopecurus myosuroides; conditions: dosage 1280 g/ha, visual rating about 3 weeks after treatment vs untreated controls
# Outline: (§3)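 Visual rating against untreated plants about 3 weeks after spraying gives % activity, where 0% means like controls and 100% means plants died. Plants were treated post-emergence at the one-leaf stage with compound formulated as wettable powder or emulsion concentrate, applied at 600 L water/ha plus 0.5% additive.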
# DIGSA [21] = assay: Post-emergence action against DIGSA, 1.28 kg/ha; format: in vivo, Digitaria sanguinalis; conditions: dosage 1280 g/ha, visual rating about 3 weeks after treatment vs untreated controls
# Outline: as §3
# ECHCG [22] = assay: Post-emergence action against ECHCG, 1.28 kg/ha; format: in vivo, Echinochloa crus-galli; conditions: dosage 1280 g/ha, visual rating about 3 weeks after treatment vs untreated controls
# Outline: as §3
# LOLRI [23] = assay: Post-emergence action against LOLRI, 1.28 kg/ha; format: in vivo, Lolium rigidum; conditions: dosage 1280 g/ha, visual rating about 3 weeks after treatment vs untreated controls
# Outline: as §3
# POAAN [24] = assay: Post-emergence action against POAAN, 1.28 kg/ha; format: in vivo, Poa annua; conditions: dosage 1280 g/ha, visual rating about 3 weeks after treatment vs untreated controls
# Outline: as §3
# SETVI [25] = assay: Post-emergence action against SETVI, 1.28 kg/ha; format: in vivo, Setaria viridis; conditions: dosage 1280 g/ha, visual rating about 3 weeks after treatment vs untreated controls
# Outline: as §3
# ABUTH [26] = assay: Post-emergence action against ABUTH, 1.28 kg/ha; format: in vivo, Abutilon theophrasti; conditions: dosage 1280 g/ha, visual rating about 3 weeks after treatment vs untreated controls (100% = plants died)
# Outline: as §3
# AMARE [27] = assay: Post-emergence action against AMARE, 1.28 kg/ha; format: in vivo, Amaranthus retroflexus; conditions: dosage 1280 g/ha, visual rating about 3 weeks after treatment vs untreated controls (100% = plants died)
# Outline: as §3
# KCHSC [28] = assay: Post-emergence action against KCHSC, 1.28 kg/ha; format: in vivo, Bassia scoparia; conditions: dosage 1280 g/ha, visual rating about 3 weeks after treatment vs untreated controls (100% = plants died)
# Outline: as §3
# MATIN [29] = assay: Post-emergence action against MATIN, 1.28 kg/ha; format: in vivo, Tripleurospermum inodorum (Matricaria inodora); conditions: dosage 1280 g/ha, visual rating about 3 weeks after treatment vs untreated controls (100% = plants died)
# Outline: as §3
# STEME [30] = assay: Post-emergence action against STEME, 1.28 kg/ha; format: in vivo, Stellaria media; conditions: dosage 1280 g/ha, visual rating about 3 weeks after treatment vs untreated controls (100% = plants died)
# Outline: as §3
# VERPE [31] = assay: Post-emergence action against VERPE, 1.28 kg/ha; format: in vivo, Veronica persica; conditions: dosage 1280 g/ha, visual rating about 3 weeks after treatment vs untreated controls (100% = plants died)
# Outline: as §3
Structure (SMILES),Pre-emergence action against ALOMY (ALOMY [1]),Pre-emergence action against DIGSA (DIGSA [2]),Pre-emergence action against ECHCG (ECHCG [3]),Pre-emergence action against LOLRI (LOLRI [4]),Pre-emergence action against POAAN (POAAN [5]),Pre-emergence action against SETVI (SETVI [6]),Pre-emergence action against ABUTH (ABUTH [7]),Pre-emergence action against AMARE (AMARE [8]),Pre-emergence action at 320 g/ha against ALOMY in % (ALOMY [13]),Pre-emergence action against AVEFA in % (AVEFA),Pre-emergence action against DIGSA in % (DIGSA [14]),Pre-emergence action against ECHGC in % (ECHGC),Pre-emergence action against LOLRI in % (LOLRI [15]),Pre-emergence action against SETVI in % (SETVI [16]),Pre-emergence action against AMARE in % (AMARE [17]),Pre-emergence action against MATIN in % (MATIN [18]),Pre-emergence action against PHBPU in % (PHBPU),Pre-emergence action against POLCO in % (POLCO),Pre-emergence action against VERPE in % (VERPE [19]),Pre-emergence action against VIOTR in % (VIOTR),other results
O=C(COc1nn(-c2ccccc2F)c(-c2ccc(F)nc2)c1Br)O[C@H]1CCOC1=O [VII-064],100%,100%,100%,100%,100%,100%,90%,100%,100%,90%,100%,100% and 90%,100%,100%,100%,100%,90%,90%,100%,100%,Pre-emergence action against KCHSC (KCHSC [9]): 100% and 90%; Pre-emergence action against MATIN (MATIN [10]): 100%; Pre-emergence action against STEME (STEME [11]): 100%; Pre-emergence action against VERPE (VERPE [12]): 100%; Post-emergence action against ALOMY (ALOMY [20]): 100%; Post-emergence action against DIGSA (DIGSA [21]): 100%; Post-emergence action against ECHCG (ECHCG [22]): 100%; Post-emergence action against LOLRI (LOLRI [23]): 100% and 90%; Post-emergence action against POAAN (POAAN [24]): 100%; Post-emergence action against SETVI (SETVI [25]): 100% and 90%; Post-emergence action against ABUTH (ABUTH [26]): 90%; Post-emergence action against AMARE (AMARE [27]): 90% and 100%; Post-emergence action against KCHSC (KCHSC [28]): 90%; Post-emergence action against MATIN (MATIN [29]): 100% and 90%; Post-emergence action against STEME (STEME [30]): 100%; Post-emergence action against VERPE (VERPE [31]): 100%
N#CCCOC(=O)COc1nn(-c2ccccc2F)c(-c2ccc(F)nc2)c1Br [VII-110],100%,100%,100%,100%,100%,100%,90%,100%,100%,80%,100%,100%,100%,100%,100%,100%,90%,100%,100%,100%,Pre-emergence action against KCHSC (KCHSC [9]): 90%; Pre-emergence action against MATIN (MATIN [10]): 100%; Pre-emergence action against STEME (STEME [11]): 100%; Pre-emergence action against VERPE (VERPE [12]): 100%; Post-emergence action against ALOMY (ALOMY [20]): 100%; Post-emergence action against DIGSA (DIGSA [21]): 100%; Post-emergence action against ECHCG (ECHCG [22]): 100%; Post-emergence action against LOLRI (LOLRI [23]): 100%; Post-emergence action against POAAN (POAAN [24]): 100%; Post-emergence action against SETVI (SETVI [25]): 90%; Post-emergence action against ABUTH (ABUTH [26]): 90%; Post-emergence action against AMARE (AMARE [27]): 90%; Post-emergence action against MATIN (MATIN [29]): 100%; Post-emergence action against STEME (STEME [30]): 100%; Post-emergence action against VERPE (VERPE [31]): 100%
C[C@@H](Oc1nn(-c2ccccc2F)c(-c2cncc(F)c2)c1Br)C(=O)O [VII-128],,,,,,,,,100%,80%,100%,90%,100%,100%,100%,90%,90%,90%,100%,100%,
